Results as given in the METLIN SMRT retention time set (Domingo-Almenara et al. 2019).

Experiment: gradient 5% acetonitrile 3 min, to 50% in 2 min, to 85% in 15 min, held 3 min, 100 µL/min
Conditions: column: Zorbax Extend-C18 2.1 x 50 mm; eluents: water / acetonitrile, 0.1% formic acid
Summary of the method: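 Over 3 months, pure standards in mixtures of ~100 molecules were run by HPLC coupled to a quadrupole time-of-flight mass spectrometer in positive and negative ionization mode. The column was a Zorbax Extend-C18 (2.1 × 50 mm, 1.8 μm) at 100 μL/min, eluted with water and acetonitrile each holding 0.1% formic acid, with 40 μL dead and 900 μL dwell volumes. Retention time was determined from adduct peaks chosen by software and checked manually.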

In order of rising RP-LC retention time:
1. COCCN1CC(CO)C2(CCN(Cc3ccc(F)c(Cl)c3)CC2)C1 (centres undefined)  550 s
2. COCCNC(=O)c1cccnc1N1CCNC(c2ccccc2)C1 (centres undefined)  564 s
3. CCOC(=O)c1c(CN(C)C)n(-c2ccccc2)c2cc(-c3cccnc3)c(O)cc12  576 s
4. CCc1noc2nc(CCC(=O)NCCCN3CCN(C)CC3)nc(N3CCCCC3)c12  599 s
5. CC(C)CC(=O)Nc1n[nH]c2c1CN(C(=O)C1CCN(C)CC1)C2(C)C  605 s
6. CC(C)(C)OC(=O)NC1[C@H]2CNC[C@@H]12 (some centres undefined)  609 s
7. CCCN1CCN(C(=O)C2CCN(S(=O)(=O)c3ccc4c(c3)sc(=O)n4CC)CC2)CC1  623 s
8. O=C(O)CN1CCCc2c(cnn2Cc2ccccc2)C1=O  656 s
9. Cc1nc2cc(N3CCCC(C(=O)Nc4ccc(N5CCOCC5)cc4)C3)cnc2nc1C (centres undefined)  658 s
10. CC(C)=CCOc1cc(O)c2c(=O)cc(-c3ccccc3)oc2c1  666 s
11. O=C(NC1(N2CCOCC2)CC1)c1ccc(Cl)cc1  667 s
12. O=C1NCCCn2cc(S(=O)(=O)Nc3ccc(F)c(Cl)c3)cc21  686 s
13. Cc1cccn2c(NC(=O)c3cc4ccccc4oc3=O)c(-c3ccccc3)nc12  695 s
14. Cc1noc(C)c1Cc1ccc(C(=O)N2CCC3(CCC3O)CC2)o1 (centres undefined)  698 s
15. CC(C)(C)c1ccc(C(=O)N2CCN(c3nc(CN4CCOCC4)cs3)CC2)cc1  711 s
16. Cc1cc(C)cc(NC(=O)N2CCCC(Cn3c(C4CC4)nc4cccnc43)C2)c1 (centres undefined)  731 s
17. Nc1cc(C2CCN(C(=O)Nc3ccc(Br)cc3)CC2)no1  732 s
18. CCc1cccc(C)c1Nc1c(-c2cccc(O)c2)nc2cnccn12  750 s
19. CC1(c2nc(-c3ccccc3)no2)CCCN(Cc2ncon2)C1 (centres undefined)  754 s
20. CCCn1cc(CCNC(=O)c2ccc(F)cc2Cl)c2cccnc21  788 s
21. Cc1cc(N2CCN(C(=O)Nc3cccc(C(F)(F)F)c3)CC2)nc(N2CCCCC2)n1  789 s
22. CN1C(=O)c2cc(C(=O)NCc3cccc(Cl)c3)nn2CC1(C)C(=O)NC1CCCCC1 (centres undefined)  793 s
23. COc1cc(NS(=O)(=O)c2ccc3c(c2)-c2oncc2CO3)cc(OC)c1OC  805 s
24. Cc1ccc(S(=O)(=O)N2CCCC(Cn3cnc4cccnc43)C2)c(C)c1 (centres undefined)  821 s
25. O=C(Cc1csc(Nc2ncccn2)n1)N1CCN(c2cccc(Cl)c2Cl)CC1  838 s
26. Cc1ccccc1CNC(=O)C1CCCN(S(=O)(=O)c2c[nH]c(C(=O)N3CCCC3)c2)C1 (centres undefined)  877 s
27. CCCc1nc(-c2c(C)cc(C)nc2NC(=O)c2ccc(C)cc2)no1  893 s
28. CC(C)COC(=O)c1ccc(NC(=O)C2C3CCC(C3)C2C(=O)O)cc1 (centres undefined)  901 s
29. CCOC(=O)c1c(C)c(CCC(=O)NC(C)c2ccccc2)n(C)c1C (centres undefined)  904 s
30. O=c1c(NCc2ccc(Cl)cc2)nccn1-c1ccc2c(c1)OCO2  923 s
31. Cn1c(=O)oc2cc(-c3noc(-c4cccc5[nH]ccc45)n3)ccc21  932 s
32. Cc1cccc(NS(=O)(=O)c2cn(C(C)C)c3ncccc23)c1C  946 s
33. CCSc1nnc(-c2nn(C)c3c2CN(S(=O)(=O)c2cc(F)ccc2F)CC3)n1CC  949 s
34. O=C(Nc1ccccc1Br)N1CCc2nc(-c3ccccc3)ncc2C1  964 s
35. O=C1CC(c2noc(-c3ccc4c(c3)OCO4)n2)CN1c1ccc(F)c(Cl)c1 (centres undefined)  1010 s
36. CCCn1c(=O)sc2cc(S(=O)(=O)N3CCC(C(=O)N(C)C4CCCCC4)CC3)ccc21  1020 s
37. Cc1ccc(Cc2nc(-c3ccc(S(=O)(=O)N4CCC(C(=O)N5CCCC5)CC4)cc3)no2)cc1  1060 s
38. O=C1COc2ccccc2N1Cc1nc(-c2ccc(F)c(Br)c2)no1  1120 s
39. O=C(CCC(=O)OCc1ccc(Br)cc1)Nc1nc(-c2ccccc2)cs1  1130 s
40. O/N=C(/c1ccccc1)c1ccc2c3c(cccc13)CC2  1140 s
41. COc1ccc(-c2csc(NC(=O)C3(c4ccccc4)CCCC3)n2)cc1OC  1170 s
42. CC(C)CN1CCn2cc(S(=O)(=O)Nc3ccccc3F)cc2C1=O  1320 s
43. O=S(=O)(c1cccc(-c2nc(-c3ccccc3)no2)c1)N1CCc2ccccc21  1320 s
44. Cc1ccc2nc(N3CCN(C(=O)C(C)(C)C)CC3)c(-c3noc(-c4ccccc4)n3)cc2c1  1370 s
